Experimental data: ChEMBL document CHEMBL1201862, “PubChem BioAssay data set” (2004)
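How tested: cells in 96-well plates exposed to compound for 48 hours at five concentrations. At the GI50, growth is halved.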 Active and inactive are the calls of the source. Cut-off read from the data, not from the text of the source: active = GI50 up to about 1.1 µM and inactive = higher.

How the values were obtained:
Assay in all cases: NCI-60 cell line screen, 48 h
HL-60 = system: HL-60
HOP-92 = system: HOP-92
NCI-H460 = system: NCI-H460
U-251 = system: U-251
HOP-62 = system: HOP-62
SF-295 = system: SF-295
SR = system: SR
TK-10 = system: TK-10
LOX IMVI = system: LOX IMVI
OVCAR-5 = system: OVCAR-5
HT-29 = system: HT-29
SK-MEL-2 = system: SK-MEL-2
UACC-62 = system: UACC-62
HCT-116 = system: HCT-116
KM12 = system: KM12
NCI-H23 = system: NCI-H23
NCI-H226 = system: NCI-H226
SNB-19 = system: SNB-19
RPMI-8226 = system: RPMI-8226
COLO 205 = system: COLO 205

Measured: GI50

COC1OC2=CCC3C(=O)NC(=O)C3C2[C@H](OCc2ccccc2)C1OCc1ccccc1 (some centres not stated)
inactive: HL-60 1.79 µM | HOP-92 1.63 µM | NCI-H460 17.9 µM | U-251 18.7 µM | HOP-62 17.9 µM | SF-295 18.1 µM | SR 2.1 µM | TK-10 1.72 µM | LOX IMVI 1.73 µM | OVCAR-5 15.7 µM | HT-29 1.82 µM | SK-MEL-2 5.36 µM | UACC-62 2.46 µM | HCT-116 1.55 µM | KM12 5.9 µM | NCI-H23 2.22 µM

CCOC(=O)c1csc(NC(=O)CCN2CCCC2)n1
inactive: HL-60 > 100 µM | HOP-92 > 100 µM | NCI-H226 > 100 µM | NCI-H460 > 100 µM | U-251 > 100 µM | HOP-62 > 100 µM | SF-295 > 100 µM | SNB-19 > 100 µM | SR 78.5 µM | TK-10 > 100 µM | LOX IMVI > 100 µM | OVCAR-5 > 100 µM | HT-29 > 100 µM | SK-MEL-2 > 100 µM | UACC-62 > 100 µM | KM12 > 100 µM | NCI-H23 > 100 µM | RPMI-8226 86.7 µM | COLO 205 > 100 µM

O=C1C=C(C2OC(CO)C(O)C2O)C(=O)N1 (configuration not stated)
inactive: HL-60 45.9 µM | HOP-92 > 100 µM | NCI-H226 > 100 µM | NCI-H460 > 100 µM | U-251 > 100 µM | HOP-62 > 100 µM | SF-295 > 100 µM | SNB-19 > 100 µM | LOX IMVI > 100 µM | OVCAR-5 > 100 µM | HT-29 > 100 µM | SK-MEL-2 > 100 µM | UACC-62 > 100 µM | HCT-116 > 100 µM | KM12 > 100 µM | NCI-H23 > 100 µM | RPMI-8226 > 51.1 µM | COLO 205 76.9 µM

C/C(=N\Oc1cc(Cl)ncn1)c1ccccn1
inactive: HOP-92 20.5 µM | NCI-H226 > 100 µM | NCI-H460 25.3 µM | U-251 60.5 µM | HOP-62 38.1 µM | SF-295 63 µM | SNB-19 > 100 µM | SR 31.7 µM | TK-10 59 µM | LOX IMVI 42.3 µM | OVCAR-5 37.8 µM | HT-29 95.7 µM | SK-MEL-2 14.1 µM | UACC-62 47.5 µM | HCT-116 > 100 µM | KM12 > 100 µM | NCI-H23 34.1 µM | RPMI-8226 > 100 µM | COLO 205 > 100 µM
